From US20170088520A1, “DEUBIQUITINASE INHIBITORS” (PharmAkea, Inc., priority 2014, published 2017)

What was measured:
Assay type in all cases: cell-based
[1] = test system: PARP cleavage in cells (NCI-H929, Z138, MM.1S, A-375); test: Analysis of PARP cleavage by Western blotting; settings: compound tested at 5 μM; Western blot
Procedure: (§1) Example B-2: Analysis of Md-1 Expression and PARP Cleavage
(§2) The ability of test compounds to decrease expression of the tumor promoting protein, Mcl-1, and to induce the inactivation/cleavage of the PARP protein is evaluated in cells (NCI-H929, Z138, MM.1S, A-375) by Western blotting. Cells are plated and treated as described in the HA-Ub-VS cell labeling assay (see above). A portion of the cleared lysate (15-50 μl) is run on an SDS-polyacrylamide gel to separate proteins and then transferred to nitrocellulose. After transfer to nitrocellulose, the proteins are detected by probing the blot with anti-Mcl-1 and anti-PARP antibodies followed by secondary antibodies coupled to IRdye 800 and IRdye 680 and visualization and quantitation using a LiCor Odyssey machine. Activity of the test compound is identified as a significant decrease in Mcl-1 expression relative to the vehicle treated cells and to the appearance of a cleaved fragment of PARP relative to the vehicle-treated cells.
(§3) The following compounds were tested in the above assays at 5 μM: […]

[2] = molecular target: T1, DUB activity in cells (NCI-H929, Z138, MM.1S, A375) (Homo sapiens, UniProt Q93008); test: HA-Ubiquitin-Vinylsulfone (HA-Ub-VS) cell labeling assay; settings: compound tested at 5 μM; HA-Ub-VS labeling of USP9x in cells
T1 construct: endogenous in cells; host or cells: NCI-H929, Z138, MM.1S, A375
T1 sequence (Q93008 whole entry): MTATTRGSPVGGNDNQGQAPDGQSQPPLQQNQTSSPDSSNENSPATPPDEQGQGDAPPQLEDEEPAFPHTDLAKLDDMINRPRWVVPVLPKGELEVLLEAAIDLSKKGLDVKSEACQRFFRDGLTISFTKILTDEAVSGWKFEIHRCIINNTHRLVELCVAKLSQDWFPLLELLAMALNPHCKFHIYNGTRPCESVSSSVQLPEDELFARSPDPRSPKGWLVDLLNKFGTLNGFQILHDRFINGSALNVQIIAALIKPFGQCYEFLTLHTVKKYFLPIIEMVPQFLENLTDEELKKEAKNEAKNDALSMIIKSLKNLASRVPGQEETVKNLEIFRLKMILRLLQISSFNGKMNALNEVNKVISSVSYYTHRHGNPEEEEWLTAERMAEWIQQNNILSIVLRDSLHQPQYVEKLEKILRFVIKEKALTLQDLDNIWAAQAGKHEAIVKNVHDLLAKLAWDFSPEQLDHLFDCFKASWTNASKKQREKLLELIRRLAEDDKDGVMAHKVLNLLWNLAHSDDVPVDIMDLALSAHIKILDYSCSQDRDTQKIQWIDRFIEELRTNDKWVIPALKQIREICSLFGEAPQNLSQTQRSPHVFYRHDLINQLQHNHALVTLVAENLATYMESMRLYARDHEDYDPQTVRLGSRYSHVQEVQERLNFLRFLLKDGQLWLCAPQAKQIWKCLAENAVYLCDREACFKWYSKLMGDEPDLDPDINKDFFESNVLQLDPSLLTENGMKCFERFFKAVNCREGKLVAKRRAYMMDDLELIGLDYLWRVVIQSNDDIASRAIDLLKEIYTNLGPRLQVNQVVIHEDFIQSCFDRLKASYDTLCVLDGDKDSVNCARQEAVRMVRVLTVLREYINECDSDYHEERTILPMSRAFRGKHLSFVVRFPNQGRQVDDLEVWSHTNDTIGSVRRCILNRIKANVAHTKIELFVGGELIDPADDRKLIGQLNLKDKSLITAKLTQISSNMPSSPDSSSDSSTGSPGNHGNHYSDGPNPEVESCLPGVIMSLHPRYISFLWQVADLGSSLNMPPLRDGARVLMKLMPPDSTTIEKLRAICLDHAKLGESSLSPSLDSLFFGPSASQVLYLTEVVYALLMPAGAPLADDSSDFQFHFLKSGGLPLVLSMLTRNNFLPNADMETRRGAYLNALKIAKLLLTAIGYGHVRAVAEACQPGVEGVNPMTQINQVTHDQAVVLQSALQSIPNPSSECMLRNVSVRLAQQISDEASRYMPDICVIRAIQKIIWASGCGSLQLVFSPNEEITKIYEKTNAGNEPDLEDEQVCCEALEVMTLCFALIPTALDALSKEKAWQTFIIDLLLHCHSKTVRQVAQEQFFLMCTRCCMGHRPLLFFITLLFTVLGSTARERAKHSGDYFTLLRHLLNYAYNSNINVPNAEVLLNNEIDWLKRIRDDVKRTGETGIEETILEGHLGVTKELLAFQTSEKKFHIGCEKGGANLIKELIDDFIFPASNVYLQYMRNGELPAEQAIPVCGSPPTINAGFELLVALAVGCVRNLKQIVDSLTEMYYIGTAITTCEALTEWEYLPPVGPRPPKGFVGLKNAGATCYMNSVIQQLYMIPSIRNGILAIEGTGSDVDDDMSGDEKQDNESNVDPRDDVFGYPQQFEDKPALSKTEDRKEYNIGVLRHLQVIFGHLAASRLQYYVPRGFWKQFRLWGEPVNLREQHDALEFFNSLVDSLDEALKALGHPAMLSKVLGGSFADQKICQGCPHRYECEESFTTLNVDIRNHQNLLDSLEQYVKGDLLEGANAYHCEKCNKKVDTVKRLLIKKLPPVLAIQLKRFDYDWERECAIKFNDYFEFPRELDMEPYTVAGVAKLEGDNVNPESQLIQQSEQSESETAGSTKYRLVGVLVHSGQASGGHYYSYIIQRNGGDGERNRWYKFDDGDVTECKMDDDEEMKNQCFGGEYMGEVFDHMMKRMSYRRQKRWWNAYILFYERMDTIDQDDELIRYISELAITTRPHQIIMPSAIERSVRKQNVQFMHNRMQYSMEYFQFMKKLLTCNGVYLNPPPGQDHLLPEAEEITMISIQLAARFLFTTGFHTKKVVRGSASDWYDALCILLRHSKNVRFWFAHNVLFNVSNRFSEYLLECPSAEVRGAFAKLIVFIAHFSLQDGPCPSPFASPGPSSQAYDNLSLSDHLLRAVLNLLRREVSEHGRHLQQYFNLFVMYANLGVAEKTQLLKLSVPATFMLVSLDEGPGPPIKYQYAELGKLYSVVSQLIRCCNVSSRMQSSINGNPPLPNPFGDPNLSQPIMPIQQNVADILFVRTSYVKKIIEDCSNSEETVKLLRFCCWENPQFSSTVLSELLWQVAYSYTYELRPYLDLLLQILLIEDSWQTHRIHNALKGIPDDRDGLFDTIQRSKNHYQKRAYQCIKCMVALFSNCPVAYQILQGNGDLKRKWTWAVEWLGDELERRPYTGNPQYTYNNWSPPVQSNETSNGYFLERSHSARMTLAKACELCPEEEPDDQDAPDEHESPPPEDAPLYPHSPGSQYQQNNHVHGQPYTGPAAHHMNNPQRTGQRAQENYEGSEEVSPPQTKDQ
Procedure: Example B-1: HA-Ubiqutin-Vinylsulfone (HA-Ub-VS) Cell Labeling
Inhibitition of DUB activity is measured in cells (NCI-H929, Z138, MM.1S, A375) using a hemaglutinin-ubiquitin-vinylsulfone (HA-Ub-VS) labeling assay. Briefly, 1-2×10^6 cells are plated in 12-well plates in 1 ml complete growth media and 250 μl of test compound in 0.5% dimethylsulfoxide (or DMSO control) is added to each well. Plates are incubated at 37° C., 5% CO2 for 2-6 hours before cells are harvested into eppendorf tubes, washed once in PBS and resuspended in 100 μl cold lysis buffer (50 mM Tris pH 8, 150 mM NaCl, 0.5% NP-40, 2 mM phenylmethylsulfonyl fluoride and complete protease inhibitor tablet). Resupended cells are frozen on dry ice, then thawed and incubated on ice for 15 minutes. Tubes are centrifuged for 10 minutes at 14,000 rpm at 4° C. and the cleared supernatants transferred to clean tubes. […] The samples are incubated 15-60 min at 37° C. before the addition of SDS gel loading buffer. Proteins are separated by SDS-PAGE, transferred to nitrocellulose and the blot probed with anti-HA antibody and anti-β-actin antibodies. The HA and β-actin antibodies are detected using secondary antibodies coupled to IRdye 800 or IRdye 680 and visualized and quantitated using the LiCor Odyssey machine.
as §3

[3] = test system: Mcl-1 expression in cells (NCI-H929, Z138, MM.1S, A-375); test: Analysis of Mcl-1 expression by Western blotting; settings: compound tested at 5 μM; Western blot
Procedure: as §1, §2, §3

With `N#C/C(=C\c1cccc(Br)n1)C(=O)NC1(c2ccccc2)CCCC1` [Compound 1, (E)-3-(6-Bromopyridin-2-yl)-2-cyano-N-(1-phenylcyclopentyl)acrylamide] the “PARP cleavage % Inhibition” value [1] was “A (A is ≧75% inhibition)”, the inhibition at 5 µM [2] was ≥ 75% and the inhibition at 5 µM [3] was ≥ 75%.

In the case of `N#C/C(=C\c1cccc(Br)n1)C(=O)NC1(c2ccccc2)CC1` [Compound 2, (E)-3-(6-Bromopyridin-2-yl)-2-cyano-N-(1-phenylcyclopropyl)acrylamide], the “PARP cleavage % Inhibition” value [1] is reported as “C (C is 25% to 50% inhibition)”, the inhibition at 5 µM [2] is reported as < 25% and the inhibition at 5 µM [3] is reported as < 25%.

In the case of `CN(C(=O)/C(C#N)=C/c1cccc(Br)n1)C1(c2ccccc2)CCCC1` [Compound 2-82, (E)-3-(6-bromopyridin-2-yl)-2-cyano-N-methyl-N-(1-phenylcyclopentyl)acrylamide], the “PARP cleavage % Inhibition” value [1] is reported as “A (A is ≧75% inhibition)”, the inhibition at 5 µM [2] is reported as 50 to 75% and the inhibition at 5 µM [3] is reported as ≥ 75%.

With `N#C/C(=C\c1cccc(Br)n1)C(=O)NC1(c2ccccc2)CCC1` [Compound 3, (E)-3-(6-Bromopyridin-2-yl)-2-cyano-N-(1-phenylcyclobutyl)acrylamide] the “PARP cleavage % Inhibition” value [1] was “B (B is 50% to 75% inhibition)”, the inhibition at 5 µM [2] was < 25% and the inhibition at 5 µM [3] was < 25%.

In the case of `N#C/C(=C\c1cccc(Br)n1)C(=O)NC1(c2cccnc2)CCCC1` [Compound 3-1, (E)-3-(6-bromopyridin-2-yl)-2-cyano-N-(1-(pyridin-3-yl)cyclopentyl) acrylamide], the “PARP cleavage % Inhibition” value [1] is reported as “B (B is 50% to 75% inhibition)”, the inhibition at 5 µM [2] is reported as < 25% and the inhibition at 5 µM [3] is reported as < 25%.

With `N#C/C(=C\c1cccc(Br)n1)C(=O)NC1(c2ccncc2)CCCC1` [Compound 3-2, (E)-3-(6-bromopyridin-2-yl)-2-cyano-N-(1-(pyridin-4-yl)cyclopentyl) acrylamide] the “PARP cleavage % Inhibition” value [1] was “A (A is ≧75% inhibition)”, the inhibition at 5 µM [2] was 25 to 50% and the inhibition at 5 µM [3] was 50 to 75%.

For `N#C/C(=C\c1ncc(Br)cc1Br)C(=O)NC1(c2ccncc2)CCCC1` [Compound 3-3, (E)-2-cyano-3-(3,5-dibromopyridin-2-yl)-N-(1-(pyridin-4-yl)cyclopentyl)acrylamide], the “PARP cleavage % Inhibition” value [1] was “A (A is ≧75% inhibition)”, the inhibition at 5 µM [2] was 50 to 75% and the inhibition at 5 µM [3] was ≥ 75%.

With `N#C/C(=C\c1cccc(C#CCn2cccn2)n1)C(=O)NC1(c2ccncc2)CCCC1` [Compound 3-4, (E)-3-(6-(3-(1H-pyrazol-1-yl)prop-1-yn-1-yl)pyridin-2-yl)-2-cyano-N-(1-(pyridin-4-yl)cyclopentyl)acrylamide] the “PARP cleavage % Inhibition” value [1] was “B (B is 50% to 75% inhibition)”, the inhibition at 5 µM [2] was < 25% and the inhibition at 5 µM [3] was < 25%.

For `N#C/C(=C\c1cccc(C#CC2(O)CCCC2)n1)C(=O)NC1(c2ccncc2)CCCC1` [Compound 3-5], the “PARP cleavage % Inhibition” value [1] was “D (D is <25% inhibition)”, the inhibition at 5 µM [2] was < 25% and the inhibition at 5 µM [3] was < 25%.

For `N#C/C(=C\c1cccc(Br)n1)C(=O)NC1(c2ccnc(Cl)c2)CCCC1` [Compound 3-6, (E)-3-(6-bromopyridin-2-yl)-N-(1-(2-chloropyridin-4-yl)cyclopentyl)-2-cyanoacrylamide], the “PARP cleavage % Inhibition” value [1] was “A (A is ≧75% inhibition)”, the inhibition at 5 µM [2] was 50 to 75% and the inhibition at 5 µM [3] was 50 to 75%.

For `N#C/C(=C\c1cccc(Br)n1)C(=O)NC1(c2ccnc(F)c2)CCCC1` [Compound 3-7, (E)-3-(6-bromopyridin-2-yl)-2-cyano-N-(1-(2-fluoropyridin-4-yl)cyclopentyl)acrylamide], the “PARP cleavage % Inhibition” value [1] was “B (B is 50% to 75% inhibition)”, the inhibition at 5 µM [2] was 25 to 50% and the inhibition at 5 µM [3] was < 25%.

In the case of `N#C/C(=C\c1ncc(Br)cc1Br)C(=O)NC1(c2ccccc2)CCCC1` [Compound 4, (E)-3-(3,5-Dibromopyridin-2-yl)-2-cyano-N-(1-phenylcyclopentyl)acrylamide], the “PARP cleavage % Inhibition” value [1] is reported as “A (A is ≧75% inhibition)”, the inhibition at 5 µM [2] is reported as ≥ 75% and the inhibition at 5 µM [3] is reported as ≥ 75%.

For `N#C/C(=C\c1ncc(Cl)cc1F)C(=O)NC1(c2ccccc2)CCCC1` [Compound 5, (E)-3-(3-Fluoro-5-chloropyridin-2-yl)-2-cyano-N-(1-phenylcyclopentyl)acrylamide], the “PARP cleavage % Inhibition” value [1] was “A (A is ≧75% inhibition)”, the inhibition at 5 µM [2] was ≥ 75% and the inhibition at 5 µM [3] was ≥ 75%.

`N#C/C(=C\c1nc(Br)ccc1F)C(=O)NC1(c2ccccc2)CCCC1` [Compound 6, (E)-3-(3-Fluoro-6-bromopyridin-2-yl)-2-cyano-N-(1-phenylcyclopentyl)acrylamide] was tested, and the “PARP cleavage % Inhibition” value [1] was “A (A is ≧75% inhibition)”, the inhibition at 5 µM [2] was ≥ 75% and the inhibition at 5 µM [3] was ≥ 75%.

With `N#C/C(=C\c1nc(Cl)ccc1Cl)C(=O)NC1(c2ccccc2)CCCC1` [Compound 7, (E)-3-(3,6-Dichloropyridin-2-yl)-2-cyano-N-(1-phenylcyclopentyl)acrylamide] the “PARP cleavage % Inhibition” value [1] was “A (A is ≧75% inhibition)”, the inhibition at 5 µM [2] was 50 to 75% and the inhibition at 5 µM [3] was ≥ 75%.

In the case of `N#C/C(=C\c1ncccc1F)C(=O)NC1(c2ccccc2)CCCC1` [Compound 8, (E)-3-(3-Fluoropyridin-2-yl)-2-cyano-N-(1-phenylcyclopentyl)acrylamide], the “PARP cleavage % Inhibition” value [1] is reported as “D (D is <25% inhibition)”, the inhibition at 5 µM [2] is reported as < 25% and the inhibition at 5 µM [3] is reported as < 25%.

With `N#C/C(=C\c1ncc(Br)cc1F)C(=O)NC1(c2ccccc2)CCCC1` [Compound 9, (E)-3-(5-Bromo-3-fluoropyridin-2-yl)-2-cyano-N-(1-phenylcyclopentyl)acrylamide] the “PARP cleavage % Inhibition” value [1] was “A (A is ≧75% inhibition)”, the inhibition at 5 µM [2] was ≥ 75% and the inhibition at 5 µM [3] was ≥ 75%.

`N#C/C(=C\c1nc(Cl)ccc1Br)C(=O)NC1(c2ccccc2)CCCC1` [Compound 10, (E)-3-(3-Bromo-6-chloropyridin-2-yl)-2-cyano-N-(1-phenylcyclopentyl)acrylamide] was tested, and the “PARP cleavage % Inhibition” value [1] was “B (B is 50% to 75% inhibition)”, the inhibition at 5 µM [2] was 50 to 75% and the inhibition at 5 µM [3] was ≥ 75%.

For `N#C/C(=C\c1ccc(Cl)c(Cl)c1)C(=O)NC1(c2ccccc2)CCCC1` [Compound 11, (E)-3-(3,4-Dichlorophenyl)-2-cyano-N-(1-phenylcyclopentyl)acrylamide], the “PARP cleavage % Inhibition” value [1] was “B (B is 50% to 75% inhibition)”, the inhibition at 5 µM [2] was 25 to 50% and the inhibition at 5 µM [3] was 25 to 50%.

For `N#C/C(=C\c1ccc(Cl)c(F)c1)C(=O)NC1(c2ccccc2)CCCC1` [Compound 12, (E)-3-(4-Chloro-3-fluorophenyl)-2-cyano-N-(1-phenylcyclopentyl)acrylamide], the “PARP cleavage % Inhibition” value [1] was “C (C is 25% to 50% inhibition)”, the inhibition at 5 µM [2] was 25 to 50% and the inhibition at 5 µM [3] was < 25%.

For `N#C/C(=C\c1ccc(O)cc1)C(=O)NC1(c2ccccc2)CCCC1` [Compound 13, (E)-3-(4-Hydroxyphenyl)-2-cyano-N-(1-phenylcyclopentyl)acrylamide], the “PARP cleavage % Inhibition” value [1] was “D (D is <25% inhibition)”, the inhibition at 5 µM [2] was < 25% and the inhibition at 5 µM [3] was < 25%.

`COc1ccc(/C=C(\C#N)C(=O)NC2(c3ccccc3)CCCC2)cc1O` [Compound 14, (E)-3-(3-Hydroxy-4-methoxyphenyl)-2-cyano-N-(1-phenylcyclopentyl)acrylamide] was tested, and the “PARP cleavage % Inhibition” value [1] was “D (D is <25% inhibition)”, the inhibition at 5 µM [2] was < 25% and the inhibition at 5 µM [3] was < 25%.

For `N#C/C(=C\c1cccc(Br)n1)C(=O)NC1(c2ccc(Br)cc2)CCCC1` [Compound 15, (E)-N-(1-(4-bromophenyl)cyclopentyl)-3-(6-bromopyridin-2-yl)-2-cyanoacrylamide], the “PARP cleavage % Inhibition” value [1] was “A (A is ≧75% inhibition)”, the inhibition at 5 µM [2] was ≥ 75% and the inhibition at 5 µM [3] was ≥ 75%.
